In US8952024B2, “Herbicidal pyrimidone derivatives” (E I du Pont de Nemours and Company, priority 2009, dated 2015):
Read-outs that look alike come from different tables or passages of the source.

Tests used:
Type in all cases: in vivo
[1] = tested on: johnsongrass (Sorghum halepense); assay: Test B pre-/postemergence plant response; settings: for pest or weed control at 31 g/ha: 31 g ai/ha; for pest or weed control at 62 g/ha: 62 g ai/ha; for pest or weed control at 125 g/ha: 125 g ai/ha
Procedure, shortened: (§1)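 Visually scored on a 0 to 100 scale after 13 to 15 days in greenhouse versus controls. Treatments were preemergence on seeded loam/sand soil and postemergence on 1- to 4-leaf plants.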

[2] = tested on: lambsquarters (Chenopodium album); assay: Test B pre-/postemergence plant response; settings: for pest or weed control at 31 g/ha: 31 g ai/ha; for pest or weed control at 62 g/ha: 62 g ai/ha; for pest or weed control at 125 g/ha: 125 g ai/ha
Procedure, shortened: as §1

[3] = tested on: pigweed (Amaranthus retroflexus); assay: Test B pre-/postemergence plant response; settings: for pest or weed control at 31 g/ha: 31 g ai/ha; for pest or weed control at 62 g/ha: 62 g ai/ha; for pest or weed control at 125 g/ha: 125 g ai/ha
Procedure, shortened: as §1

[4] = tested on: ragweed (common ragweed, Ambrosia elatior); assay: Test B pre-/postemergence plant response; settings: for pest or weed control at 31 g/ha: 31 g ai/ha; for pest or weed control at 62 g/ha: 62 g ai/ha; for pest or weed control at 125 g/ha: 125 g ai/ha
Procedure, shortened: as §1

wild oat (Avena fatua) = assay: Test B pre-/postemergence plant response; settings: for pest or weed control at 31 g/ha: 31 g ai/ha; for pest or weed control at 62 g/ha: 62 g ai/ha; for pest or weed control at 125 g/ha: 125 g ai/ha
Procedure, shortened: as §1

rice (Oryza sativa) = assay: Test B flooded paddy test
Procedure, shortened: (§2)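 Rice, umbrella sedge, ducksalad and barnyardgrass were grown to the 2-leaf stage, flooded to 3 cm, and compound was applied directly to the paddy water, with that depth kept throughout. After 13 to 15 days in the greenhouse, plants were visually rated against controls on a 0 (no effect) to 100 (complete control) scale.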

[5] = tested on: umbrella sedge (Cyperus difformis); assay: Test B flooded paddy test
Procedure, shortened: as §2

[6] = Preemergence, 250 g ai/ha, 0 to 100 scale
[7] = Sorghum halepense, pre-emergence, Preemergence, scale 0 to 100 (0 no effect, 100 complete control), read-out: Plant response rating, Johnsongrass
[8] = Chenopodium album, pre-emergence, Preemergence, scale 0 to 100 (0 no effect, 100 complete control), read-out: Plant response rating, Lambsquarters
[9] = Amaranthus retroflexus, pre-emergence, Preemergence, scale 0 to 100 (0 no effect, 100 complete control), read-out: Plant response rating, Pigweed
[10] = Ambrosia artemisiifolia, pre-emergence, 360 h, Preemergence, scale 0 to 100 (0 no effect, 100 complete control), read-out: Plant response rating, Ragweed
[11] = Avena fatua, pre-emergence, Preemergence, scale 0 to 100 (0 no effect, 100 complete control), read-out: Plant response rating, Oat, Wild
[12] = Flood, 31 g ai/ha, scale 0 to 100 (0 no effect, 100 complete control)

`COCCn1c(-c2cc(F)cc(F)c2)ncc(C(=O)C2=C(O)C3CCC(C3)C2=O)c1=O` (stereo not drawn) [Compound 243, 2-(3,5-difluorophenyl)-5-[(2-hydroxy-4-oxobicyclo[3.2.1]oct-2-en-3-yl)carbonyl]-3-(2-methoxyethyl)-4(3H)-pyrimidinone] was tested, and the “Johnsongrass plant response rating” value [1, 6] was 100, the pest or weed control at 31 g/ha ([1]; Sorghum halepense, post-emergence, Postemergence, 0 to 100 scale (0 no effect, 100 complete control), read-out: Plant response rating, Johnsongrass) was 100% and the pest or weed control at 62 g/ha ([1]; Sorghum halepense, post-emergence, Postemergence, scale 0 to 100 (0 no effect, 100 complete control), read-out: Plant response rating, Johnsongrass) was 100%. For the same compound, the pest or weed control at 125 g/ha ([1]; Sorghum halepense, post-emergence, Postemergence, scale 0 (no effect) to 100 (complete control), 13 to 15 days, read-out: Plant response rating, Johnsongrass) was 100%, the pest or weed control at 250 g/ha ([1]; Sorghum halepense, post-emergence, Postemergence, 250 g ai/ha, scale 0 to 100 (0 no effect, 100 complete control), 13 to 15 days, read-out: Plant response rating, Johnsongrass) was 100% and the pest or weed control at 31 g/ha [1, 7] was 70%. For the same compound, the pest or weed control at 62 g/ha [1, 7] was 95%, the pest or weed control at 125 g/ha ([1]; Sorghum halepense, pre-emergence, Preemergence, scale 0 to 100, 0 no effect, 100 complete control, read-out: Plant response rating, Johnsongrass) was 95% and the pest or weed control at 31 g/ha ([2]; Chenopodium album, post-emergence, Postemergence, 0 to 100 scale (0 no effect, 100 complete control), read-out: Plant response rating, Lambsquarters) was 100%. For the same compound, the pest or weed control at 62 g/ha ([2]; Chenopodium album, post-emergence, Postemergence, scale 0 to 100 (0 no effect, 100 complete control), read-out: Plant response rating, Lambsquarters) was 100%, the pest or weed control at 125 g/ha ([2]; Chenopodium album, post-emergence, Postemergence, scale 0 (no effect) to 100 (complete control), 13 to 15 days, read-out: Plant response rating, Lambsquarters) was 100% and the pest or weed control at 250 g/ha ([2]; Chenopodium album, post-emergence, Postemergence, 250 g ai/ha, scale 0 to 100 (0 no effect, 100 complete control), 13 to 15 days, read-out: Plant response rating, Lambsquarters) was 100%. It also gave a pest or weed control at 31 g/ha [2, 8] of 100%, a pest or weed control at 62 g/ha [2, 8] of 100% and a pest or weed control at 125 g/ha ([2]; Chenopodium album, pre-emergence, Preemergence, scale 0 to 100, 0 no effect, 100 complete control, read-out: Plant response rating, Lambsquarters) of 100%. For the same compound, the “Lambsquarters plant response rating” value [2, 6] was 100, the pest or weed control at 31 g/ha ([3]; Amaranthus retroflexus, post-emergence, Postemergence, 0 to 100 scale (0 no effect, 100 complete control), read-out: Plant response rating, Pigweed) was 85% and the pest or weed control at 62 g/ha ([3]; Amaranthus retroflexus, post-emergence, Postemergence, scale 0 to 100 (0 no effect, 100 complete control), read-out: Plant response rating, Pigweed) was 100%. The pest or weed control at 125 g/ha ([3]; Amaranthus retroflexus, post-emergence, Postemergence, scale 0 (no effect) to 100 (complete control), 13 to 15 days, read-out: Plant response rating, Pigweed) was 100%, the pest or weed control at 250 g/ha ([3]; Amaranthus retroflexus, post-emergence, Postemergence, 250 g ai/ha, scale 0 to 100 (0 no effect, 100 complete control), 13 to 15 days, read-out: Plant response rating, Pigweed) was 100% and the pest or weed control at 31 g/ha [3, 9] was 75%. The pest or weed control at 62 g/ha [3, 9] was 98%, the pest or weed control at 125 g/ha ([3]; Amaranthus retroflexus, pre-emergence, Preemergence, scale 0 to 100, 0 no effect, 100 complete control, read-out: Plant response rating, Pigweed) was 100% and the “Pigweed plant response rating” value [3, 6] was 100. It also gave a pest or weed control at 31 g/ha ([4]; Ambrosia artemisiifolia, post-emergence, 360 h, Postemergence, 0 to 100 scale (0 no effect, 100 complete control), read-out: Plant response rating, Ragweed) of 90%, a pest or weed control at 62 g/ha ([4]; Ambrosia artemisiifolia, post-emergence, 360 h, Postemergence, scale 0 to 100 (0 no effect, 100 complete control), read-out: Plant response rating, Ragweed) of 95% and a pest or weed control at 125 g/ha ([4]; Ambrosia artemisiifolia, post-emergence, 360 h, Postemergence, scale 0 (no effect) to 100 (complete control), 13 to 15 days, read-out: Plant response rating, Ragweed) of 98%. For the same compound, the pest or weed control at 250 g/ha ([4]; Ambrosia artemisiifolia, post-emergence, 360 h, Postemergence, 250 g ai/ha, scale 0 to 100 (0 no effect, 100 complete control), 13 to 15 days, read-out: Plant response rating, Ragweed) was 100%, the pest or weed control at 31 g/ha [4, 10] was 85% and the pest or weed control at 62 g/ha [4, 10] was 95%. For the same compound, the pest or weed control at 125 g/ha ([4]; Ambrosia artemisiifolia, pre-emergence, 360 h, Preemergence, scale 0 to 100, 0 no effect, 100 complete control, read-out: Plant response rating, Ragweed) was 98%, the “Ragweed plant response rating” value [4, 6] was 98 and the pest or weed control at 31 g/ha (wild oat (Avena fatua); Avena fatua, post-emergence, Postemergence, 0 to 100 scale (0 no effect, 100 complete control), read-out: Plant response rating, Oat, Wild) was 80%. The pest or weed control at 62 g/ha (wild oat (Avena fatua); Avena fatua, post-emergence, Postemergence, scale 0 to 100 (0 no effect, 100 complete control), read-out: Plant response rating, Oat, Wild) was 85%, the pest or weed control at 125 g/ha (wild oat (Avena fatua); Avena fatua, post-emergence, Postemergence, scale 0 (no effect) to 100 (complete control), 13 to 15 days, read-out: Plant response rating, Oat, Wild) was 85% and the pest or weed control at 250 g/ha (wild oat (Avena fatua); Avena fatua, post-emergence, Postemergence, 250 g ai/ha, scale 0 to 100 (0 no effect, 100 complete control), 13 to 15 days, read-out: Plant response rating, Oat, Wild) was 100%. For the same compound, the pest or weed control at 31 g/ha (wild oat (Avena fatua); [11]) was 30%, the pest or weed control at 62 g/ha (wild oat (Avena fatua); [11]) was 85% and the pest or weed control at 125 g/ha (wild oat (Avena fatua); Avena fatua, pre-emergence, Preemergence, scale 0 to 100, 0 no effect, 100 complete control, read-out: Plant response rating, Oat, Wild) was 85%. The “Oat, Wild plant response rating” value (wild oat (Avena fatua); [6]) was 90, the “Rice plant response rating” value (rice (Oryza sativa); [12]) was 45 and the plant injury at 250 g/ha (rice (Oryza sativa); Oryza sativa, 250 g ai/ha, flooded paddy test, visual rating on 0 to 100 scale (0 no effect, 100 complete control) after 13 to 15 days, read-out: Plant response rating, Flood, Rice) was 75%. For the same compound, the plant injury at 62 g/ha (rice (Oryza sativa); Oryza sativa, Flood (flooded paddy test), 62 g ai/ha, scale of 0 to 100 where 0 is no effect and 100 is complete control, 13 to 15 days, read-out: Plant response rating, Rice) was 60%, the plant injury at 125 g/ha (rice (Oryza sativa); Oryza sativa, Flood (flooded paddy test), 125 g ai/ha, scale 0 to 100, 0 is no effect, 100 is complete control, 13 to 15 days, read-out: Plant response rating, Rice) was 95% and the pest or weed control at 250 g/ha ([5]; Cyperus difformis, 360 h, 250 g ai/ha, flooded paddy test, visual rating on 0 to 100 scale (0 no effect, 100 complete control) after 13 to 15 days, read-out: Plant response rating, Flood, Sedge, Umbrella) was 100%. For the same compound, the pest or weed control at 62 g/ha ([5]; Cyperus difformis, 360 h, Flood (flooded paddy test), 62 g ai/ha, scale of 0 to 100 where 0 is no effect and 100 is complete control, 13 to 15 days, read-out: Plant response rating, Sedge, Umbrella) was 90%, the pest or weed control at 125 g/ha ([5]; Cyperus difformis, 360 h, Flood (flooded paddy test), 125 g ai/ha, scale 0 to 100, 0 is no effect, 100 is complete control, 13 to 15 days, read-out: Plant response rating, Sedge, Umbrella) was 100% and the “Sedge, Umbrella plant response rating” value [5, 12] was 0.
